Results reported in US20240247031A1, “COMPOSITION FOR TREATING CANCER CONTAINING TELOMERASE-TARGETING GNRH ANTAGONIST-DERIVED PEPTIDE HS1002” (Research & Business Foundation Sungkyunkwan University, priority 2023, published 2024).

How the values were obtained:
HEK293-Vector cells = experiment: Intracellular calcium flux assay, mock-transfected cells; type: cell-based, human; settings: 1 and 10 nM
Experimental: (§1) Human embryonic kidney cell line (HEK293), and mouse cancer cell lines (MC38, 4T1) were purchased from the American Type Culture Collection (Manassas, VA, USA). All cell lines were grown in Dulbecco's Modified Essential Medium (DMEM) or Roswell Park Memorial Institute (RPMI) 1640 supplemented with 10% FBS, 100 U/mL penicillin, and 100 μg/mL streptomycin (WelGENE, Daegu, South Korea) in a humidified atmosphere of 5% CO2 at 37° C. To obtain GnRHR-overexpressing HEK293 (HEK293-GnRHR) cells, transfection of the pCMV-AC-GFP-GnRHR vector (HEK293-GnRHR) was performed using Lipofectamine™ 3000 according to the manufacturer's instructions (Cat. 100022052, Thermo Fisher Scientific, Waltham, MA, USA). Colonies of geneticin-resistant cells were selected by adding G418 (800 μg/mL, Sigma) to the culture medium. The HEK293-pCMV-AC-GFP vector (HEK293-Vector) cells were used as a mock-transfection group.
(§2) Intracellular calcium mobilization was measured using the Calcium Flux Assay Kit (Cat. ab233472, abcam) in response to different concentrations of each peptide. The percentage increase was calculated relative to basal fluorescence intensity. The experiment was performed in triplicate.

LNCaP tumors = experiment: LNCaP xenograft model, tumor volume, tumor weight and body weight (FIG. 17); type: in vivo; settings: LNCaP xenograft BALB/c nude mice, 1 mg/kg/day s.c., 13 days
Experimental: All mice were purchased from Central Lab Animal Inc. ([…]). They were raised in a 12 h environmental light/dark cycle with controlled temperature (22±2° C.) conditions. The experimental protocol was approved by the Sungkyunkwan University Institutional Animal Care and Use Committee (SKKUIACUC2021-06-27-1, SKKUIACUC2023-01-07-1). For the establishment of tumors, LNCaP (1×10^7), MC38 (2×10^5), and 4T1 (1×10^6) suspended in serum-free media containing 50% Matrigel was subcutaneously administered in the right flank of mice, respectively. The tumor volumes (V) were calculated using a caliper and the standard equation: V (mm^3)=0.52 (ab^2) (a=length, b=width). Once the tumor reached 100-200 mm^3, the mice were randomly divided into different groups and subcutaneously injected with a vehicle or each peptide every day.
To investigate the anticancer effect of HS1002, the present inventors observed the volume of cancer cells after transplanting the cancer cells into experimental animals. Specifically, mice (4-week-old male BALB/c nude mice; Central Lab. Animal Inc., Seoul, Korea) were prepared, and tumor cells (1×10^7 LNCaP cells) suspended in 1 mL of a serum-free medium containing 50% Matrigel were percutaneously injected into the upper flank of each nude mouse. When the tumor cell volume reached about 200 mm^3, the mice were randomly assigned to a vehicle control group, a leuprolide acetate-treated group, and test groups (GV1001-treated group and HS1002-treated group), respectively. Leuprolide acetate (0.1 mg/kg/day) and GV1001 and HS1002 (1 mg/kg/day) were injected subcutaneously for 13 days.

HEK293-GnRHR cells = biological target: T1, HEK293-GnRHR cells (Homo sapiens, UniProt P30968); experiment: Intracellular calcium flux assay; type: cell-based
T1 construct: GFP; expressed in transfected cells
T1 sequence (P30968 1-328): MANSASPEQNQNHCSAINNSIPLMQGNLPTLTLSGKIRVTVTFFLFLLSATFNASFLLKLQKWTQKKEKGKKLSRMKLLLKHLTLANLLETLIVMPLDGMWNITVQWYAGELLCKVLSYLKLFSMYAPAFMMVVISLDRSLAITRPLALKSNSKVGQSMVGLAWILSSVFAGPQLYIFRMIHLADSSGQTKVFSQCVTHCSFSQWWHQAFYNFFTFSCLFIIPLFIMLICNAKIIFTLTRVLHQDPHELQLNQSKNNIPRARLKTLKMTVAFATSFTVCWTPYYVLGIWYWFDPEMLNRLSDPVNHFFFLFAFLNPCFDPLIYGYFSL
Experimental: as §1, §2

telomerase = experiment: Telomerase activity quantification qPCR in treated LNCaP cells (FIG. 10, 11); type: cell-based, human; settings: FIG. 11
Experimental: After treatment with GV1001, HS1001, HS1002, and GnRH, the changes in hTERT mRNA and protein expression level were investigated for each peptide. The drug treatment was performed every 24 h considering the stability of peptides in aqueous solutions. To investigate the telomerase activity reducing effect of the peptides, prostate cancer cell lines (LNCaP) were treated with each drug at 300 μM every 24 h for a total of 72 h and then measured for telomerase activity through qPCR. The proteins in a cell lysate were quantified to obtain a telomerase product extended by the same amount of proteins, and qPCR was performed using the telomerase as a template.
In the treatment with the peptides, the change in telomerase activity was investigated. The cells were cultured in 100-mm plates each, and about 24 h later, the cells were treated with the peptides synthesized in Example 3 at a concentration of 300 μM before incubation. The cells were cultured in a 37° C., 5% CO2 incubator using 1% FBS RPMI media. The cells were harvested 72 h after the peptide treatment and measured for telomerase activity. A telomerase activity quantification qPCT analysis kit (ScienCell, Carlsbad, CA, USA) was used.

LNCaP = experiment: cells; type: cell-based, human; settings: human, 48 h
Experimental: (§3) To evaluate anticancer activities of the produced peptides on various types of cancer cells, MTT analysis was performed. Human prostate cancer cell lines (LNCaP, PC3, and DU145), human breast cancer cell lines (MDA-MB-231 and MCF-7), lung cancer cell line (A549), and ovarian cancer cell line (SKOV3) were cultured in RPMI media supplemented with 1% penicillin/streptomycin and 1% fetal bovine serum (all from Life Technologies, Grand Island, NY). The cells were seeded in 96-well plates containing 100 μL of growth media for 24 h. The media were removed, and then 100 μL of the peptide (solvent DPBS) at each concentration was added to each well and incubated at 37° C. for 48 h. After incubation for 48 h, 100 μL of MTT reagent was added to each well. The cells were incubated at 37° C. for 4 h, and then the supernatant was removed. Formazan crystals were dissolved in 100 μL of DMSO with gentle stirring at 37° C. for 10 min. The absorbance per well was measured at 540 nm using a VERSA max microplate reader (Molecular Devices Corp.).

MCF-7 = experiment: cells; type: cell-based, human; settings: human, 48 h
Experimental: as §3

SMILES: CCNC(=O)[C@@H]1CCCN1C(=O)[C@@H](NC(=O)[C@H](Cc1ccccc1)NC(=O)[C@H](CCCNC(=N)N)NC(=O)[C@H](CC(C)C)NC(=O)[C@H](CCCNC(=N)N)NC(=O)[C@H](Cc1ccc(O)cc1)NC(=O)[C@H](CO)NC(=O)[C@H](Cc1c[nH]c2ccccc12)NC(=O)[C@H](Cc1c[nH]cn1)NC(=O)[C@@H]1CCC(=O)N1)[C@@H](C)CC [HS1002]
- calcium flux (HEK293-Vector cells): increased calcium flux
- other toxicity (LNCaP tumors): no other toxicity
- reduction of tumor volume (LNCaP tumors): about 50%
- reduction of tumor weight (LNCaP tumors): about 50%
- calcium flux (HEK293-GnRHR cells; 100 nM): increased calcium flux in HEK293-GnRHR cells
- calcium flux (HEK293-GnRHR cells; 1 and 10 nM): increased calcium flux
- telomerase activity compared with GV1001 (telomerase): better telomerase activity than GV1001
- Cytotoxicity (IC50) LNCaP (LNCaP): 6.83 ± 0.72 µg/mL
- Cytotoxicity (IC50) MCF-7 (MCF-7): 53.31 ± 1.79 µg/mL
